In US11000033B2, “Ketone or oxime compound, and herbicide” (NISSAN CHEMICAL CORPORATION, priority 2014, dated 2021):

What was measured:
Type in all cases: in vivo
[1] = system: Echinochloa oryzacola Vasing.; assay: Test Example 2: herbicidal activity, application during weed generation in submerged conditions (symbol A); settings: Table 23; application herbicide amount 320 g/ha; grade 0-5 by criteria of Test Example 1
Protocol: (§1) Herbicidal Activity Test by Application During Weed Generation in Submerged Conditions
(§2) After alluvial soil was placed into 1/10000 are of Wagner pot, water was poured and mixed to form a submerged condition having a water depth of 4 cm. Seeds of Echinochloa oryzacola Vasing., Scirpus juncoides, and Monochoria vaginalis were sowed in a mixed manner in the above pot and the pot was placed in the greenhouse of 25° C. to 30° C. to grow the plants. When Echinochloa oryzacola Vasing., Scirpus juncoides, and Monochoria vaginalis were grown to one leaf stage to two leaf stage, the emulsion agent of the compound of the present invention prepared in accordance with Formulation Example 2 was diluted with water so as to be a predetermined herbicide amount and the diluted emulsion agent was applied to the surface of the water. 3 weeks later from the herbicide application, the effect to each plant was investigated in accordance with the criteria of Test Example 1.

[2] = system: Scirpus juncoides; assay: Test Example 2: herbicidal activity, application during weed generation in submerged conditions (symbol B); settings: Table 23; application herbicide amount 320 g/ha; grade 0-5 by criteria of Test Example 1
Protocol: as §1, §2

[3] = system: Monochoria vaginalis; assay: Test Example 2: herbicidal activity, application during weed generation in submerged conditions (symbol C); settings: Table 23; application herbicide amount 320 g/ha; grade 0-5 by criteria of Test Example 1
Protocol: as §1, §2

[4] = system: Echinochloa crus-galli var. crus-galli; assay: Test Example 3: herbicidal effect by foliage application, Wagner pot (symbol H); settings: application herbicide amount 320 g/ha
Method in brief: (§3)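 Herbicidal activity was rated three weeks after a foliar spray of diluted emulsion concentrate, applied at a predetermined dose to plants grown for 14 days from seed in waterlogged alluvial soil within a 25–30 °C greenhouse.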

[5] = system: Leptochloa chinensis; assay: Test Example 3: herbicidal effect by foliage application, Wagner pot (symbol D); settings: application herbicide amount 320 g/ha
Method in brief: as §3

[6] = system: Cyperus difformis; assay: Test Example 3: herbicidal effect by foliage application, Wagner pot (symbol E); settings: application herbicide amount 320 g/ha
Method in brief: as §3

[7] = system: directly sowed rice plant; assay: Test Example 3: effect on crop by foliage application, Wagner pot (symbol b); settings: application herbicide amount 320 g/ha
Method in brief: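 Greenhouse culture at 25–30 °C of seeded rice, Cyperus difformis, Leptochloa chinensis and Echinochloa crus-galli var. crus-galli, in alluvial soil held under 0.1–0.5 cm of water in a Wagner pot.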

[8] = system: Digitaria ciliaris; assay: Test Example 5: herbicidal effect by foliage application, plastic box (symbol F); settings: 320 g/ha, 3 weeks after application
Method in brief: (§4)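 After sowing into sterilized diluvial soil and growing two weeks under glass at 25° C. to 30° C., seedlings receive a uniform foliar spray of diluted emulsion. Damage is judged visually three weeks on.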

[9] = system: Setaria viridis; assay: Test Example 5: herbicidal effect by foliage application, plastic box (symbol G); settings: 320 g/ha, 3 weeks after application
Method in brief: as §4

[10] = system: Echinochloa crus-galli var. crus-galli; assay: Test Example 5: herbicidal effect by foliage application, plastic box (symbol H); settings: 320 g/ha, 3 weeks after application
Method in brief: as §4

[11] = system: Avena fatua; assay: Test Example 5: herbicidal effect by foliage application, plastic box (symbol I); settings: 320 g/ha, 3 weeks after application
Method in brief: as §4

[12] = system: Alopecurus myosuroides; assay: Test Example 5: herbicidal effect by foliage application, plastic box (symbol J); settings: 320 g/ha, 3 weeks after application
Method in brief: as §4

[13] = system: Lolium multiflorum Lam.; assay: Test Example 5: herbicidal effect by foliage application, plastic box (symbol K); settings: 320 g/ha, 3 weeks after application
Method in brief: as §4

[14] = system: Apera spica-venti; assay: Test Example 5: herbicidal effect by foliage application, plastic box (symbol L); settings: 320 g/ha, 3 weeks after application
Method in brief: as §4

[15] = system: Abutilon theophrasti; assay: Test Example 5: herbicidal effect by foliage application, plastic box (symbol M); settings: 320 g/ha, 3 weeks after application
Method in brief: as §4

[16] = system: Amaranthus retroflexus; assay: Test Example 5: herbicidal effect by foliage application, plastic box (symbol N); settings: 320 g/ha, 3 weeks after application
Method in brief: as §4

[17] = system: Chenopodium album; assay: Test Example 5: herbicidal effect by foliage application, plastic box (symbol O); settings: 320 g/ha, 3 weeks after application
Method in brief: as §4

[18] = system: Stellaria media; assay: Test Example 5: herbicidal effect by foliage application, plastic box (symbol P); settings: 320 g/ha, 3 weeks after application
Method in brief: as §4

[19] = system: Galium spurium; assay: Test Example 5: herbicidal effect by foliage application, plastic box (symbol Q); settings: 320 g/ha, 3 weeks after application
Method in brief: as §4

[20] = system: Veronica persica; assay: Test Example 5: herbicidal effect by foliage application, plastic box (symbol R); settings: 320 g/ha, 3 weeks after application
Method in brief: as §4

[21] = system: corn; assay: Test Example 5: effect on crop by foliage application, plastic box (symbol c); settings: 320 g/ha, 3 weeks after application
Method in brief: (§5)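 Soil: sterilized diluvial. Container: plastic box, 21 × 13 cm, 7 cm deep. Sowing: spot-like, ~1.5 cm cover. Growth: greenhouse, 25° C. to 30° C.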

[22] = system: soybean; assay: Test Example 5: effect on crop by foliage application, plastic box (symbol d); settings: 320 g/ha, 3 weeks after application
Method in brief: as §5

[23] = system: rice plant; assay: Test Example 5: effect on crop by foliage application, plastic box (symbol b); settings: 320 g/ha, 3 weeks after application
Method in brief: as §5

[24] = system: wheat; assay: Test Example 5: effect on crop by foliage application, plastic box (symbol e); settings: 320 g/ha, 3 weeks after application
Method in brief: as §5

[25] = system: beet; assay: Test Example 5: effect on crop by foliage application, plastic box (symbol f); settings: 320 g/ha, 3 weeks after application
Method in brief: as §5

[26] = system: rapeseed; assay: Test Example 5: effect on crop by foliage application, plastic box (symbol g); settings: 320 g/ha, 3 weeks after application
Method in brief: as §5

SMILES	Herbicidal effect grade, A: Echinochloa oryzacola Vasing. [1]	Herbicidal effect grade, B: Scirpus juncoides [2]	Herbicidal effect grade, C: Monochoria vaginalis [3]	F: Digitaria ciliaris, herbicidal effect grade [8]	G: Setaria viridis, herbicidal effect grade [9]	H: Echinochloa crus-galli var. crus-galli, herbicidal effect grade [10]	I: Avena fatua, herbicidal effect grade [11]	J: Alopecurus myosuroides, herbicidal effect grade [12]	K: Lolium multiflorum Lam., herbicidal effect grade [13]	L: Apera spica-venti, herbicidal effect grade [14]	M: Abutilon theophrasti, herbicidal effect grade [15]	N: Amaranthus retroflexus, herbicidal effect grade [16]	O: Chenopodium album, herbicidal effect grade [17]	P: Stellaria media, herbicidal effect grade [18]	Q: Galium spurium, herbicidal effect grade [19]	R: Veronica persica, herbicidal effect grade [20]	c: corn, effect on crop grade [21]	d: soybean, effect on crop grade [22]	b: directly sowed rice plant, effect on crop grade [23]	e: wheat, effect on crop grade [24]	other results
CON=C(C)CC1CC(O)=C(c2c(C)cc(C#CC(C)(C)O)cc2C)C1=O (mixture of isomers) [6-036]	3 (Herbicidal ratio of 40% or higher and lower than 70%)	0 (Herbicidal ratio of 5% or lower (almost no effect))	0 (Herbicidal ratio of 5% or lower (almost no effect))	4 (Herbicidal ratio of 70% or higher and lower than 90%)	4 (Herbicidal ratio of 70% or higher and lower than 90%)	5 (Herbicidal ratio of 90% or more (almost completely withered))	3 (Herbicidal ratio of 40% or higher and lower than 70%)	3 (Herbicidal ratio of 40% or higher and lower than 70%)	5 (Herbicidal ratio of 90% or more (almost completely withered))	3 (Herbicidal ratio of 40% or higher and lower than 70%)	0 (Herbicidal ratio of 5% or lower (almost no effect))	0 (Herbicidal ratio of 5% or lower (almost no effect))	0 (Herbicidal ratio of 5% or lower (almost no effect))	1 (Herbicidal ratio of 5% or higher and lower than 20%)	0 (Herbicidal ratio of 5% or lower (almost no effect))	3 (Herbicidal ratio of 40% or higher and lower than 70%)	4 (Herbicidal ratio of 70% or higher and lower than 90%)	0 (Herbicidal ratio of 5% or lower (almost no effect))	4 (Herbicidal ratio of 70% or higher and lower than 90%)	0 (Herbicidal ratio of 5% or lower (almost no effect))	herbicidal effect on H (Echinochloa crus-galli var. crus-galli), grade 0-5 [4]: 4 (Herbicidal ratio of 70% or higher and lower than 90%); herbicidal effect on D (Leptochloa chinensis), grade 0-5 [5]: 5 (Herbicidal ratio of 90% or more (almost completely withered)); herbicidal effect on E, grade 0-5 [6]: 3 (Herbicidal ratio of 40% or higher and lower than 70%); effect on crop b (directly sowed rice plant), grade 0-5 [7]: 4 (Herbicidal ratio of 70% or higher and lower than 90%); f: beet, effect on crop grade [25]: 0 (Herbicidal ratio of 5% or lower (almost no effect)); g: rapeseed, effect on crop grade [26]: 3 (Herbicidal ratio of 40% or higher and lower than 70%)
COc1cc(Br)cc(C)c1C1=C(O)CC(C(C)C(C)=O)C1=O (stereo not shown) [7-031]	0 (Herbicidal ratio of 5% or lower (almost no effect))	1 (Herbicidal ratio of 5% or higher and lower than 20%)	2 (Herbicidal ratio of 20% or higher and lower than 40%)	4 (Herbicidal ratio of 70% or higher and lower than 90%)	5 (Herbicidal ratio of 90% or more (almost completely withered))	5 (Herbicidal ratio of 90% or more (almost completely withered))	3 (Herbicidal ratio of 40% or higher and lower than 70%)	3 (Herbicidal ratio of 40% or higher and lower than 70%)	5 (Herbicidal ratio of 90% or more (almost completely withered))	5 (Herbicidal ratio of 90% or more (almost completely withered))	0 (Herbicidal ratio of 5% or lower (almost no effect))	0 (Herbicidal ratio of 5% or lower (almost no effect))	0 (Herbicidal ratio of 5% or lower (almost no effect))	0 (Herbicidal ratio of 5% or lower (almost no effect))	0 (Herbicidal ratio of 5% or lower (almost no effect))	0 (Herbicidal ratio of 5% or lower (almost no effect))	1 (Herbicidal ratio of 5% or higher and lower than 20%)	0 (Herbicidal ratio of 5% or lower (almost no effect))	4 (Herbicidal ratio of 70% or higher and lower than 90%)	0 (Herbicidal ratio of 5% or lower (almost no effect))	H (Echinochloa crus-galli var. crus-galli) herbicidal effect grade ([4]; Table 24): 4 (Herbicidal ratio of 70% or higher and lower than 90%); D (Leptochloa chinensis) herbicidal effect grade ([5]; Table 24): 5 (Herbicidal ratio of 90% or more (almost completely withered)); E herbicidal effect grade ([6]; Table 24): 3 (Herbicidal ratio of 40% or higher and lower than 70%); b (directly sowed rice plant) effect on crop grade ([7]; Table 24): 5 (Herbicidal ratio of 90% or more (almost completely withered)); f: beet, effect on crop grade [25]: 0 (Herbicidal ratio of 5% or lower (almost no effect)); g: rapeseed, effect on crop grade [26]: 0 (Herbicidal ratio of 5% or lower (almost no effect))
